Reference: ChEMBL document CHEMBL1138451, “Significance of interactions of BACE1-Arg235 with its ligands and design of BACE1 inhibitors with P2 pyridine scaffold” (Bioorg Med Chem Lett, 2009)

What was measured:
Beta-secretase 1 [1] = target: T1, Beta-secretase 1 (Homo sapiens, UniProt P56817); assay: Inhibition of human recombinant Arg235 region of BACE1 by FRET assay
Beta-secretase 1 [2] = target: T1, Beta-secretase 1; assay: Inhibition of human recombinant Arg235 region of BACE1 at 0.2 uM by FRET assay
Beta-secretase 1 [3] = target: T1, Beta-secretase 1; assay: Inhibition of human recombinant Arg235 region of BACE1 at 2 uM by FRET assay

T1 sequence (P56817 whole entry): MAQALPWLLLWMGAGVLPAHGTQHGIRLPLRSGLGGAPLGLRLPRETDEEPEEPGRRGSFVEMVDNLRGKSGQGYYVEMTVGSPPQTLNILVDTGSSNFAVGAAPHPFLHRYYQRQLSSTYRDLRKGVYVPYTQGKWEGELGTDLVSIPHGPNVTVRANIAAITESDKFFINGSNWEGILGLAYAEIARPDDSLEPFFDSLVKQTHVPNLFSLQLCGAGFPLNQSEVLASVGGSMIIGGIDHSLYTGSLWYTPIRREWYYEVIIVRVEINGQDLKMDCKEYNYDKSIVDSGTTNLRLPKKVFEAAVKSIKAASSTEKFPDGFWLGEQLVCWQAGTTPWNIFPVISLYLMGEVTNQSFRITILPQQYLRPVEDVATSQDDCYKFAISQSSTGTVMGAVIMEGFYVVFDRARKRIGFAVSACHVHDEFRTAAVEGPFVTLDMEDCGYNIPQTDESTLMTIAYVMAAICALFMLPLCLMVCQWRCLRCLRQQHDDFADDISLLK

Row | IC50 (Beta-secretase 1 [1]) [nM] | inhibition (Beta-secretase 1 [2]) [%] | inhibition (Beta-secretase 1 [3]) [%] | Compound
1 | 13 | 91 | 99 | O=C(N[C@@H](Cc1ccccc1)[C@H](O)C(=O)Nc1cccc(-c2nn[nH]n2)c1)c1cc(Cl)cc(C(=O)N2COC[C@@H]2c2ccc(F)cc2)n1
2 | – | 93 | 99 | O=C(N[C@@H](Cc1ccccc1)[C@H](O)C(=O)Nc1cccc(-c2nn[nH]n2)c1)c1cc(Br)cc(C(=O)N2COC[C@@H]2c2ccc(F)cc2)n1
3 | – | 88 | 99 | O=C(N[C@@H](Cc1ccccc1)[C@H](O)C(=O)Nc1cccc(-c2nn[nH]n2)c1)c1cc(Br)cc(C(=O)N2COC[C@@H]2c2ccccc2)n1
4 | 15 | – | – | O=C(N[C@@H](Cc1ccccc1)[C@H](O)C(=O)Nc1cccc(-c2nnn[nH]2)c1)c1cc(Br)cc(C(=O)N2COC[C@@H]2c2ccccc2)n1
5 | – | 87 | 98 | O=C(N[C@@H](Cc1ccccc1)[C@H](O)C(=O)Nc1cccc(-c2nn[nH]n2)c1)c1cc(Cl)cc(C(=O)N2COC[C@@H]2c2ccccc2)n1
6 | 9 | – | – | O=C(N[C@@H](Cc1ccccc1)[C@H](O)C(=O)Nc1cccc(-c2nnn[nH]2)c1)c1cc(Br)cc(C(=O)N2COC[C@@H]2c2ccc(F)cc2)n1
7 | 10 | – | – | O=C(N[C@@H](Cc1ccccc1)[C@H](O)C(=O)Nc1cccc(-c2nnn[nH]2)c1)c1cc(I)cc(C(=O)N2COC[C@@H]2c2ccc(F)cc2)n1
8 | – | – | 89 | O=C(N[C@@H](Cc1ccccc1)[C@H](O)C(=O)Nc1cccc(-c2nn[nH]n2)c1)c1cccc(C(=O)N2COC[C@@H]2c2ccccc2)n1
9 | 22 | – | – | O=C(N[C@@H](Cc1ccccc1)[C@H](O)C(=O)Nc1cccc(-c2nnn[nH]2)c1)c1cc(Cl)cc(C(=O)N2COC[C@@H]2c2ccccc2)n1
10 | – | 92 | 99 | O=C(N[C@@H](Cc1ccccc1)[C@H](O)C(=O)Nc1cccc(-c2nn[nH]n2)c1)c1cc(I)cc(C(=O)N2COC[C@@H]2c2ccc(F)cc2)n1
11 | 24 | 86 | 99 | O=C(N[C@@H](Cc1ccccc1)[C@H](O)C(=O)Nc1cccc(-c2nn[nH]n2)c1)c1cc(I)cc(C(=O)N2COC[C@@H]2c2ccccc2)n1
